The numbers were not newly measured in US20050234025A1, “Compositions comprising one or more policosanols and/or policosanoic acids combined with sterol and/or steroid based ascorbic acid derivatives, and uses thereof” (FORBES MEDI-TECH INC., priority 2004, published 2005), which cites them from elsewhere.

The test system of the series is mice. As to conditions: Ben-David et al.

In the case of `C[C@]12CC[C@H](O)CC1=CC[C@@H]1[C@@H]2CC[C@]2(C)C(=O)CC[C@@H]12` [DHEA, dehydroepiandrostrone], the “effect on cholesterol (anti-hypercholesterolemic effect)” value was “anti-hypercholesterolemic effect”.
